Tests used:
Details in all cases: 72 h
CAL-51 [1] = tested on: CAL-51
Procedure, shortened: (§1)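 Each 384-well plate was pre-loaded with compound dissolved in 5 µl medium, received breast cancer cells in 20 µl suspension, and was incubated 72 h. A 2.5 µl addition of CellTiter-Blue for 2 h at 37 °C was followed by a fluorescence read at 560/590 nm. Data were normalised per plate to vehicle and a positive kill control and checked by Z'-factor. EC50 was fitted from the percent-inhibition dose-response curve, censored at the highest concentration, excluding rows with a drug sensitivity score of zero.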

MDA-MB-453 [2] = tested on: MDA-MB-453
Procedure, shortened: as §1

CAL-120 [3] = tested on: CAL-120
Procedure, shortened: as §1

HCC1143 [4] = tested on: HCC1143
Procedure, shortened: as §1

Hs578T [5] = tested on: Hs578T
Procedure, shortened: as §1

MDA-MB-231 [6] = tested on: MDA-MB-231
Procedure, shortened: as §1

BT-549 [7] = tested on: BT-549
Procedure, shortened: (§2)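 Breast cancer cell lines (20 µl suspension) were seeded into 384-well plates holding compound at 5 concentrations in 10-fold steps over a compound-specific 10,000-fold range, then incubated 72 h. Cell death was read first by CellTox Green fluorescence (485/520 nm), then viability by CellTiter-Glo luminescence after 10 min at room temperature. Each plate was normalised to 0.1 % DMSO and a positive kill control. EC50 was fitted from the dose-response curves and censored at the top concentration.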

CAL-120 [8] = tested on: CAL-120; remark: listed apart in the source
Procedure, shortened: as §2

CAL-51 [9] = tested on: CAL-51; remark: listed apart in the source
Procedure, shortened: as §2

CAL-85-1 [10] = tested on: CAL-85-1
Procedure, shortened: as §2

DU-4475 [11] = tested on: DU-4475
Procedure, shortened: as §2

HCC1143 [12] = tested on: HCC1143; remark: listed apart in the source
Procedure, shortened: as §2

HCC1599 [13] = tested on: HCC1599
Procedure, shortened: as §2

HCC1937 [14] = tested on: HCC1937
Procedure, shortened: as §2

Hs578T [15] = tested on: Hs578T; remark: listed apart in the source
Procedure, shortened: as §2

MCF-10A [16] = tested on: MCF-10A
Procedure, shortened: as §2

MDA-MB-231 [17] = tested on: MDA-MB-231; remark: listed apart in the source
Procedure, shortened: as §2

MDA-MB-436 [18] = tested on: MDA-MB-436
Procedure, shortened: as §2

MDA-MB-453 [19] = tested on: MDA-MB-453; remark: listed apart in the source
Procedure, shortened: as §2

MFM-223 [20] = tested on: MFM-223
Procedure, shortened: as §2

SK-BR-3 [21] = tested on: SK-BR-3
Procedure, shortened: as §2

BT-549 [22] = tested on: BT-549; remark: listed apart in the source
Description: (§3)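 Drug sensitivity and resistance testing (DSRT) of breast cancer cell lines in 384-well plates, 5 concentrations in 10-fold dilutions over a compound-specific 10,000-fold range. After 72 h, cytotoxicity was read by CellTox Green fluorescence and viability by CellTiter-Glo luminescence (multiplexed), normalised to DMSO and benzethonium chloride controls. EC50 is the inflection point of the fitted dose-response curve (bottom asymptote free, so it can be relative for partial curves) and is censored at the highest tested concentration. Rows with DSS 0 (no meaningful response) were excluded.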

CAL-51 [23] = tested on: CAL-51; remark: listed apart in the source
Description: as §3

CAL-85-1 [24] = tested on: CAL-85-1; remark: listed apart in the source
Description: as §3

HDQ-P1 [25] = tested on: HDQ-P1
Description: as §3

Hs578T [26] = tested on: Hs578T; remark: listed apart in the source
Description: as §3

MCF-10A [27] = tested on: MCF-10A; remark: listed apart in the source
Description: as §3

MDA-MB-231 [28] = tested on: MDA-MB-231; remark: listed apart in the source
Description: as §3

MDA-MB-453 [29] = tested on: MDA-MB-453; remark: listed apart in the source
Description: as §3

MDA-MB-468 [30] = tested on: MDA-MB-468
Description: as §3

MFM-223 [31] = tested on: MFM-223; remark: listed apart in the source
Description: as §3

CAL-148 [32] = tested on: CAL-148
Procedure, shortened: as §2

CAL-85-1 [33] = tested on: CAL-85-1; remark: listed apart in the source
Procedure, shortened: as §1

DU-4475 [34] = tested on: DU-4475; remark: listed apart in the source
Procedure, shortened: as §1

HDQ-P1 [35] = tested on: HDQ-P1; remark: listed apart in the source
Procedure, shortened: as §1

BT-474 [36] = tested on: BT-474
Procedure, shortened: as §1

BT-549 [37] = tested on: BT-549; remark: listed apart in the source
Procedure, shortened: as §1

HCC1937 [38] = tested on: HCC1937; remark: listed apart in the source
Procedure, shortened: as §1

MDA-MB-436 [39] = tested on: MDA-MB-436; remark: listed apart in the source
Procedure, shortened: as §1

MDA-MB-468 [40] = tested on: MDA-MB-468; remark: listed apart in the source
Procedure, shortened: as §1

SK-BR-3 [41] = tested on: SK-BR-3; remark: listed apart in the source
Procedure, shortened: as §1

BT-474 [42] = tested on: BT-474; remark: listed apart in the source
Description: as §3

CAL-120 [43] = tested on: CAL-120; remark: listed apart in the source
Description: as §3

CAL-148 [44] = tested on: CAL-148; remark: listed apart in the source
Procedure, shortened: as §1

HCC1599 [45] = tested on: HCC1599; remark: listed apart in the source
Procedure, shortened: as §1

MFM-223 [46] = tested on: MFM-223; remark: listed apart in the source
Procedure, shortened: as §1

CAL-148 [47] = tested on: CAL-148; remark: listed apart in the source
Description: as §3

HCC1937 [48] = tested on: HCC1937; remark: listed apart in the source
Description: as §3

EC50, CellTiter-Blue viability (MDA-MB-453 [2]) [nM] | EC50, CellTiter-Blue viability (HCC1143 [4]) [µM] | EC50, CellTiter-Blue viability (MDA-MB-231 [6]) [nM] | EC50, CellTiter-Glo (BT-549 [7]) [nM] | EC50, CellTiter-Glo (HCC1143 [12]) [nM] | EC50, CellTiter-Glo (HCC1599 [13]) [µM] | EC50, CellTiter-Glo (MDA-MB-231 [17]) [nM] | EC50, CellTiter-Glo (MDA-MB-436 [18]) [nM] | EC50, CellTiter-Glo (MDA-MB-453 [19]) [nM] | EC50, CellTiter-Glo (SK-BR-3 [21]) [nM] | SMILES | EC50, CellTiter-Blue viability (CAL-51 [1]) [nM] | EC50, CellTiter-Blue viability (CAL-120 [3]) [nM] | EC50, CellTiter-Blue viability (Hs578T [5]) [nM] | EC50, CellTiter-Glo (CAL-120 [8]) [nM] | EC50, CellTiter-Glo (CAL-51 [9]) [µM] | EC50, CellTiter-Glo (CAL-85-1 [10]) [nM] | EC50, CellTiter-Glo (DU-4475 [11]) [µM] | EC50, CellTiter-Glo (Hs578T [15]) [nM] | EC50, CellTiter-Glo (MFM-223 [20]) [nM] | EC50, CellTox Green (CAL-51 [23]) [nM] | also measured
102 | 9.92 | 460 | – | – | – | – | – | – | – | CC(=O)c1c(C)c2cnc(Nc3ccc(N4CCNCC4)cn3)nc2n(C2CCCC2)c1=O | 1170 | 12.8 | 7700 | – | – | – | – | – | – | – | –
– | – | – | 397 | 1730 | 0.13 | 1410 | 1430 | 109 | 193 | Cn1cc(C2=Nc3cc(NC(=O)C(N)C4CCCCC4)cc4c3C2=CNNC4=O)cn1 (configuration not stated) | – | – | – | 5050 | 2.38 | 293 | 9.44 | 387 | 109 | 1130 | EC50, CellTiter-Glo (HCC1937 [14]): 3870 nM; EC50, CellTiter-Glo (MCF-10A [16]): 2700 nM; EC50, CellTox Green (BT-549 [22]): 7.37 µM; EC50, CellTox Green (CAL-85-1 [24]): 88.9 nM; EC50, CellTox Green (HDQ-P1 [25]): 1000 nM; EC50, CellTox Green (Hs578T [26]): 9.61 µM; EC50, CellTox Green (MCF-10A [27]): 89.5 nM; EC50, CellTox Green (MDA-MB-231 [28]): 255 nM; EC50, CellTox Green (MDA-MB-453 [29]): 7.25 µM; EC50, CellTox Green (MDA-MB-468 [30]): 5.28 µM; EC50, CellTox Green (MFM-223 [31]): 3030 nM
552 | 5.62 | 432 | 251 | 1300 | 6.41 | 938 | 1060 | 543 | 3130 | COc1cc2c(cc1O)CC[C@@H]1[C@@H]2CC[C@]2(C)[C@@H](O)CC[C@@H]12 [2-methoxyestradiol] | 2450 | 1510 | 1210 | 1020 | 4.93 | 2220 | 4.53 | 1400 | 1830 | 4060 | EC50, CellTiter-Glo (CAL-148 [32]): 7.66 µM; EC50, CellTiter-Blue viability (CAL-85-1 [33]): 1280 nM; EC50, CellTiter-Blue viability (DU-4475 [34]): 1730 nM; EC50, CellTiter-Blue viability (HDQ-P1 [35]): 4.22 µM; EC50, CellTiter-Blue viability (BT-474 [36]): 747 nM; EC50, CellTiter-Blue viability (BT-549 [37]): 1020 nM; EC50, CellTiter-Blue viability (HCC1937 [38]): 820 nM; EC50, CellTiter-Blue viability (MDA-MB-436 [39]): 697 nM; EC50, CellTiter-Blue viability (MDA-MB-468 [40]): 3190 nM; EC50, CellTiter-Blue viability (SK-BR-3 [41]): 5.8 µM; EC50, CellTox Green (BT-474 [42]): 370 nM; EC50, CellTox Green (BT-549 [22]): > 10 µM; EC50, CellTox Green (CAL-120 [43]): 6.41 µM; EC50, CellTox Green (Hs578T [26]): 1.82 µM; EC50, CellTox Green (MDA-MB-231 [28]): 756 nM; EC50, CellTox Green (MFM-223 [31]): 660 nM

SMILES | EC50, CellTiter-Blue viability (MDA-MB-453 [2]) [nM] | EC50, CellTiter-Blue viability (HCC1143 [4]) [µM] | EC50, CellTiter-Blue viability (MDA-MB-231 [6]) [nM] | EC50, CellTiter-Glo (BT-549 [7]) [nM] | EC50, CellTiter-Glo (HCC1143 [12]) [nM] | EC50, CellTiter-Glo (HCC1599 [13]) [µM] | EC50, CellTiter-Glo (MDA-MB-231 [17]) [nM] | EC50, CellTiter-Glo (MDA-MB-436 [18]) [nM] | EC50, CellTiter-Glo (MDA-MB-453 [19]) [nM] | EC50, CellTiter-Glo (SK-BR-3 [21]) [nM] | EC50, CellTiter-Blue viability (CAL-51 [1]) [nM] | EC50, CellTiter-Blue viability (CAL-120 [3]) [nM] | EC50, CellTiter-Blue viability (Hs578T [5]) [nM] | EC50, CellTiter-Glo (CAL-120 [8]) [nM] | EC50, CellTiter-Glo (CAL-51 [9]) [µM] | EC50, CellTiter-Glo (CAL-85-1 [10]) [nM] | EC50, CellTiter-Glo (DU-4475 [11]) [µM] | EC50, CellTiter-Glo (Hs578T [15]) [nM] | EC50, CellTiter-Glo (MFM-223 [20]) [nM] | EC50, CellTox Green (CAL-51 [23]) [nM] | also measured
Cc1sc2c(c1C)C(c1ccc(Cl)cc1)=N[C@@H](CC(=O)OC(C)(C)C)c1nnc(C)n1-2 [(+)JQ1] | 172 | 0.354 | 265 | 167 | 753 | – | 653 | 749 | 447 | 494 | 1040 | 114 | 122 | 231 | 7.44 | 316 | 0.956 | 126 | 481 | 2330 | EC50, CellTiter-Glo (CAL-148 [32]): 0.92 µM; EC50, CellTiter-Glo (HCC1937 [14]): 720 nM; EC50, CellTiter-Glo (MCF-10A [16]): 254 nM; EC50, CellTiter-Blue viability (CAL-148 [44]): 676 nM; EC50, CellTiter-Blue viability (CAL-85-1 [33]): 254 nM; EC50, CellTiter-Blue viability (DU-4475 [34]): 339 nM; EC50, CellTiter-Blue viability (BT-549 [37]): 320 nM; EC50, CellTiter-Blue viability (HCC1599 [45]): 406 nM; EC50, CellTiter-Blue viability (HCC1937 [38]): 468 nM; EC50, CellTiter-Blue viability (MDA-MB-468 [40]): 871 nM; EC50, CellTiter-Blue viability (MFM-223 [46]): 243 nM; EC50, CellTiter-Blue viability (SK-BR-3 [41]): 0.337 µM; EC50, CellTox Green (CAL-148 [47]): 687 nM; EC50, CellTox Green (CAL-85-1 [24]): 2020 nM; EC50, CellTox Green (HCC1937 [48]): 10 nM; EC50, CellTox Green (MDA-MB-468 [30]): 1.83 µM
